Results as given in patent US6727227B1, “Tetrapetide revealing geroprotective effect, pharmacological substance on its basis, and the method of its application” (Obschestvo S Ogranichennoi Otvetstven-Nostiju “Klinika …, priority 2002, dated 2004).
Marks after values point to notes of the source that are not given here. Residues, ends and D or L forms follow the SMILES beside them.

Tests used:
[1] = tested on: gastric EC-cells; experiment: Extra-pineal synthesis of melatonin: enteroendocrine and serotonin-positive cell density in stomach after epiphysectomy; format: in vivo, male Wistar rats; details: for NEND/1 mm^2 (density of entero-endocrine cells), Fundal / NEND/1 mm^2 (density of entero-endocrine cells), Pyloric / Nser/1 mm^2 (density of serotonin-positive cells), Pyloric: 0.5 μg subcutaneously 10 days
Protocol: The research was carried out on male Wistar rats weighing 130-140 g. The total number of the animals (23) was divided into 5 groups. The 1st group (control) included intact animals. The animals of groups 2-5 underwent epiphysectomy (EE). In 3 weeks after the surgery (on the 21st day) the animals of the 2nd and 3rd groups were subcutaneously injected with sodium chloride in dose 0.5 ml for the next 10 days. The animals of groups 4 and 5 were administered with L-Ala-L-Glu-L-Asp-Gly tetrapeptide (SEQ ID NO: 1) in dose 0.5 μg according to the same scheme.
Slaughtering of the animals and isolation of their organs were conducted from 10 a.m. to 12 noon by daylight with the use of Nembutal anaesthesia (50 mg/kg). The animals of groups 1, 2 and 4 were slaughtered in 3 days upon the final drug administration (on the 33rd day after the operation and the onset of the experiment), while the animals of groups 3 and 5-in 12 days (on the 42nd day after epiphysectomy). Examined were the main organs of the diffuse neuroendocrine system (DNES): stomach, thyroid gland, and pancreas.
The surgery—epiphysectomy—was conducted under ether anaesthesia according to the devised technique. A 1-1.5 cm long incision was made along the central line of the head. Upon the uncovering of the scull cap an aperture was drilled over the sinus confluence point by means of a hollow 0.5 cm-diameter auger, which was manufactured of a metal tube especially for the experiment. The epiphysis was extracted by means of ophthalmic forceps through the opening in the cranium. The trepanation aperture was covered with an osteal fragment. The skin incision was sewn with silk threads.
Fragments of the extracted organs were fixed for 24 hours in Buen sour liquid for optic microscopy and according to Karnovsky for electron microscopy. Material dehydration and filling it in with paraffin for optic microscopy, as well as epone mixture for ultra-structural examination were prepared according to generally accepted techniques. Paraffin sections (7 μm) were placed on a microscope slide covered with a poly-L-lysine film (Sigma). Ultra-thin sections (100 nm) prepared on LKB-7A microtome (LKB) were contrasted with uranyl acetate and plumbum citrate.
Histological and immunohistochemical examinations were carried out with a Jenamed-2 microscope (Zeiss). Electron-microscopic examination was conducted with a electronic JEM-100S microscope (JEOL).
For staining hematoxyline-eosin was applied. The total population of APUD-cytes in the pyloric and fundal stomach sections was determined according to Grimelius' histochemical silvering method (25).
Immunohistochemical exposure of enterochromophine-cells (EC-cells) was conducted by applying uniclonic antibodies of mice to serotonin (Dako, 1:15 titre). The uniclonic antibodies were identified according to avidin-biotin-peroxidase (ABP) method (Vectastain kit) in order to measure immune serum globulins of mice.
The quantitative studies were carried out by means of computer analysis system of microscopic imprints (Imstar) with the use of Morphostar and Colquant (Imstar) applied licensed computer programmes, in accordance with the basic principles of stereology and morphometry (26).
The quantitative density of enteroendocrine (END) (NEND/1 mm^2) and serotonin-positive cells (Nser/1 mm^2) was estimated in 10 visual fields. The test area (S) constituted 5 mm^2.
For the statistical processing of the acquired data the non-parametric U-criterion by Mann/Whitney was applied.

[2] = tested on: white outbred rats; experiment: Subacute toxicity, 90 days; format: in vivo; details: intramuscularly daily for 90 days, 1 μg/kg, 0.3 mg/kg, 3 mg/kg
Protocol: Experimental animals were exposed daily to a single administration of the drug intramuscularly for 90 days in doses 1 μg/kg, 0.3 mg/kg, 3 mg/kg in 0.5 ml of sodium chloride solution. Animals of the control group were administered with the same amount of sodium chloride.
Within the whole period of study the animals were under daily observation. Behaviour of the animals, their rations and water consumption, the state of hair integument and mucous membranes were registered. The animals were weighed weekly. Prior to and on the 30th, 60th, and 90th days of the drug administration the morphological composition and properties of the peripheral blood were examined. Upon the experiment completion biochemical and coagulologic indices of blood were investigated.

[3] = tested on: Drosophila melanogaster of EA strain; experiment: Life span and ageing rate, EA strain; format: in vivo
Protocol: Drosophila melanogaster of EA strain served as a model for studying the influence of L-Ala-L-Glu-L-Asp-Gly tetrapeptide (SEQ ID NO: 1) on catalase activity, tissue chemoluminescence, and life span.
One-day old flies were placed in test tubes, 10 individuals of the same sex in each. Every 5 to 7 days they were transferred to a fresh medium, taking into account the number of deceased individuals. The average and maximal life spans were defined. The ageing rate was calculated by the parameters of Gomperz equation.
L-Ala-L-Glu-L-Asp-Gly tetrapeptide (SEQ ID NO: 1) was applied in the larvae of the 3rd age in dose 0.00001% of the culture medium weight, which constituted approximately 0.015 mg/100 ml. Catalase activity and the intensity of chemoluminescence were estimated in the homogenates of adult 7-day old flies by generally accepted methods. The experiment was conducted with a subsequent 5 repetition.
Regression and dispersal analyses served as the basic technique of statistic processing.

[4] = tested on: rats; experiment: Chronic toxicity, 6 months; format: in vivo; details: intramuscularly daily during 6 months, 1 μg/kg, 0.1 mg/kg, 1 mg/kg
Protocol: The animals were exposed daily to a single administration of the drug intramuscularly in doses 1 μg/kg, 0.1 mg/kg, 1 mg/kg in 0.5 ml of sodium chloride solution during 6 months. Behaviour of the animals, their rations and water consumption, the state of their hair integument and mucous membranes were registered. The animals were weighed daily during the first 3 months of the experiment and then once a month. Haematological and biochemical studies were carried out 3 months after the onset of drug administration and upon experiment completion. Functions of the cardiovascular system, liver, pancreas, kidneys, and adrenal glands were assessed. Upon the end of drug administration some animals were subjected to pathomorphological examination for the purpose of estimating the condition of various sections of the brain and spinal marrow, heart, aorta, lungs, liver, kidneys, organs of the endocrine and immune systems.

[5] = epiphysectomised rats, 3rd day upon the end of drug administration
[6] = epiphysectomised rats, 12th day upon the end of drug administration

SMILES: C[C@H](N)C(=O)N[C@@H](CCC(=O)O)C(=O)N[C@@H](CC(=O)O)C(=O)NCC(=O)O [L-Ala-L-Glu-L-Asp-Gly tetrapeptide, L-alanyl-L-glutamyl-L-aspartyl-glycine] (H-AEDG-OH)
- Extra-pineal synthesis of serotonin and melatonin in gastric EC-cells ([1]; epiphysectomised rats): promotes the extra-pineal synthesis of serotonin and melatonin
- NEND/1 mm^2 (density of entero-endocrine cells), Fundal [1, 5]: 64 ± 5 /1 mm^2
- NEND/1 mm^2 (density of entero-endocrine cells), Pyloric [1, 5]: 21 ± 1 /1 mm^2
- Nser/1 mm^2 (density of serotonin-positive cells), Pyloric [1, 5]: 26 ± 2 /1 mm^2
- NEND/1 mm^2 (density of entero-endocrine cells), Fundal [1, 6]: 47 ± 9 /1 mm^2
- NEND/1 mm^2 (density of entero-endocrine cells), Pyloric [1, 6]: 19 ± 1 /1 mm^2
- Nser/1 mm^2 (density of serotonin-positive cells), Pyloric [1, 6]: 26 ± 3 /1 mm^2
- Effect on the epiphysectomy impact on DNES cells ([1]; within 3 days upon the end of administration, maintained for 12 days): complete suppression of the epiphysectomy impact
- Side effects, subacute toxicity [2]: absence of side effects
- ALS ([3]; females, Experiment 1): 16.4 ± 1.68 days
- G 10^2 ([3]; females, Experiment 1): 3.6 ± 0.61* days^−1
- LSmax ([3]; females, Experiment 1): 39 days
- LnR0 ([3]; females, Experiment 1): -3.1 ± 0.21 day⁻¹
- ALS ([3]; females, Experiment 2): 16.7 ± 0.70 days
- G 10^2 ([3]; females, Experiment 2): 4.2 ± 1.68 days^−1
- LSmax ([3]; females, Experiment 2): 41 days
- LnR0 (Gompertz parameter) ([3]; females, Experiment 2): -3.6 ± 0.41 day⁻¹
- ALS ([3]; males, Experiment 1): 10.8 ± 1.09 days
- G 10^2 ([3]; males, Experiment 1): 3.3 ± 2.25 days^−1
- LSmax ([3]; males, Experiment 1): 39 days
- LnR0 (Gompertz parameter) ([3]; males, Experiment 1): -2.3 ± 0.26 day⁻¹
- ALS ([3]; males, Experiment 2): 17.4 ± 0.88 days
- G 10^2 ([3]; males, Experiment 2): 4.7 ± 0.94* days^−1
- LSmax ([3]; males, Experiment 2): 45 days
- LnR0 (Gompertz parameter) ([3]; males, Experiment 2): -3.0 ± 0.28 day⁻¹
- Pathologic alterations (general state, blood indices, intrinsic organs, cardiovascular, respiratory, liver, kidney) [4]: no pathologic alterations
- Side effects, chronic toxicity [4]: absence of side effects
